{"source": "DBAASP", "experiment_in_all_cases": "≥ marks a high value that may be exact or a test limit, other limits are often not marked, values filed in µg/mL are converted to µM", "key": {"[1]": {"system": "Acinetobacter baumannii NCTC 13424"}, "[2]": {"system": "Acinetobacter baumannii ATCC 17987"}, "[3]": {"system": "Escherichia coli BL21"}, "[4]": {"system": "Klebsiella pneumoniae M6"}, "[5]": {"system": "Xanthomonas axonopodis pv. phaseoli"}, "[6]": {"system": "Escherichia coli CFI_160_KPC2"}, "[7]": {"system": "Enterococcus faecalis NCTC 12201"}, "[8]": {"system": "Escherichia coli LEC 001"}, "[9]": {"system": "Pseudomonas syringae pv. tomato"}, "[10]": {"system": "Pseudomonas syringae"}, "[11]": {"system": "Xanthomonas axonopodis pv. phaseoli ATCC 9563"}, "[12]": {"system": "Acinetobacter baumannii AYE"}, "[13]": {"system": "Acinetobacter baylyi ADP1"}, "[14]": {"system": "Streptococcus pyogenes GAS M1T1"}, "[15]": {"system": "Escherichia coli CFI_161_NDM"}, "[16]": {"system": "Escherichia coli NCTC 12923"}, "[17]": {"system": "Escherichia coli 319238"}, "[18]": {"system": "Enterococcus faecalis NCTC 775"}, "[19]": {"system": "Staphylococcus aureus 15"}, "[20]": {"system": "Enterococcus faecalis NCTC 12204"}, "[21]": {"system": "Klebsiella pneumoniae NCTC 13368"}, "[22]": {"system": "Staphylococcus aureus NCTC 9144"}, "[23]": {"system": "Acinetobacter baumannii NCTC 13302"}, "[24]": {"system": "Acinetobacter baumannii"}, "[25]": {"system": "Pseudomonas aeruginosa PAO1"}, "[26]": {"system": "Pseudomonas aeruginosa NCTC 13437"}, "[27]": {"system": "Xanthomonas axonopodis pv. glycines"}, "[28]": {"system": "Escherichia coli ATCC 25922"}, "[29]": {"system": "Staphylococcus aureus ATCC 25923"}, "[30]": {"system": "Candida albicans 08022821"}, "[31]": {"system": "Candida glabrata 09050201"}, "[32]": {"system": "Bacillus cereus"}, "[33]": {"system": "Shigella sp."}, "[34]": {"system": "Enterococcus faecium 1299"}, "[35]": {"system": "Staphylococcus epidermidis"}, "[36]": {"system": "Candida albicans 08022710"}, "[37]": {"system": "Staphylococcus aureus 08032706"}, "[38]": {"system": "Nocardia asteroides"}, "[39]": {"system": "Klebsiella pneumoniae"}, "[40]": {"system": "Escherichia coli"}, "[41]": {"system": "Salmonella enterica subsp. enterica serovar Paratyphi A"}, "[42]": {"system": "Candida glabrata 08A802"}, "[43]": {"system": "Stenotrophomonas maltophilia"}, "[44]": {"system": "Candida albicans 08030102"}, "[45]": {"system": "Candida albicans 08030401"}, "[46]": {"system": "Candida albicans 08030809"}}, "note": "“And” between values parts separate entries of the source, which are not always exact repeats. Identical values can stand only once."}
{"compound": "CC[C@H](C)[C@H](NC(=O)[C@H](CCCCN)NC(=O)[C@H](CCC(=O)O)NC(=O)[C@H](CCCCN)NC(=O)[C@H](Cc1c[nH]c2ccccc12)NC(=O)[C@H](C)N)C(=O)N[C@@H](CCCN=C(N)N)C(=O)N[C@@H](CCCCN)C(=O)N[C@@H](CCCCN)C(=O)N[C@@H](CC(C)C)C(=O)N[C@@H](CCCCN)C(=O)N[C@@H](CC(N)=O)C(=O)N[C@@H](CCC(=O)O)C(=O)N[C@H](C(=O)N[C@@H](CCCCN)C(=O)N[C@@H](CCCCN)C(=O)N[C@@H](CCCCN)C(=O)N[C@@H](Cc1c[nH]c2ccccc12)C(=O)N[C@@H](CCCN=C(N)N)C(=O)N[C@@H](CCCCN)C(=O)N[C@@H](C)C(=O)N[C@H](C(=O)N[C@H](C(=O)N[C@@H](C)C(=O)N[C@@H](Cc1c[nH]c2ccccc12)C(=O)O)[C@@H](C)CC)C(C)C)[C@@H](C)CC", "note": "[AWKEKIRKKLKNEIKKKWRKAVIAW]", "values": [{"measurement": "MIC", "setting": "[1]", "value": 0.629, "unit": "µM"}, {"measurement": "MIC", "setting": "[2]", "value": 0.315, "unit": "µM"}, {"measurement": "MIC", "setting": "[3]", "value": 2, "unit": "µM"}, {"measurement": "MIC", "setting": "[4]", "value": 2.52, "unit": "µM"}, {"measurement": "MIC", "setting": "[5]", "value": 0.0786, "unit": "µM"}, {"measurement": "MIC", "setting": "[6]", "value": 0.629, "unit": "µM"}, {"measurement": "MIC", "setting": "[7]", "value": "≥ 40.3", "unit": "µM"}, {"measurement": "MIC", "setting": "[8]", "value": 2.52, "unit": "µM"}, {"measurement": "MIC", "setting": "[9]", "value": 0.0786, "unit": "µM"}, {"measurement": "MIC", "setting": "[10]", "value": 8, "unit": "µM"}, {"measurement": "MIC", "setting": "[11]", "value": 0.25, "unit": "µM"}, {"measurement": "MIC", "setting": "[12]", "value": 0.315, "unit": "µM"}, {"measurement": "MIC", "setting": "[13]", "value": 0.629, "unit": "µM"}, {"measurement": "MIC", "setting": "[14]", "value": 8, "unit": "µM"}, {"measurement": "MIC", "setting": "[15]", "value": 0.315, "unit": "µM"}, {"measurement": "MIC", "setting": "[16]", "value": 0.157, "unit": "µM"}, {"measurement": "MIC", "setting": "[17]", "value": 1.26, "unit": "µM"}, {"measurement": "MIC", "setting": "[18]", "value": "≥ 40.3", "unit": "µM"}, {"measurement": "MIC", "setting": "[19]", "value": "≥ 40.3", "unit": "µM"}, {"measurement": "MIC", "setting": "[20]", "value": 5.03, "unit": "µM"}, {"measurement": "MIC", "setting": "[21]", "value": 5.03, "unit": "µM"}, {"measurement": "MIC", "setting": "[22]", "value": 2.52, "unit": "µM"}, {"measurement": "MIC", "setting": "[23]", "value": 0.315, "unit": "µM"}, {"measurement": "MIC", "setting": "[24]", "value": 0.315, "unit": "µM"}, {"measurement": "MIC", "setting": "[25]", "value": "8 µM and 5.03 µM"}, {"measurement": "MIC", "setting": "[26]", "value": "≥ 40.3", "unit": "µM"}]}
{"compound": "CC[C@H](C)[C@H](NC(=O)[C@@H](NC(=O)[C@H](CO)NC(=O)[C@H](Cc1c[nH]c2ccccc12)NC(=O)[C@H](CC(C)C)NC(=O)CN)[C@@H](C)O)C(=O)N[C@@H](CCCCN)C(=O)N[C@@H](CC(N)=O)C(=O)N[C@H](C(=O)N[C@@H](C)C(=O)N[C@@H](C)C(=O)N[C@@H](C)C(=O)N[C@@H](C)C(=O)NCC(=O)N[C@@H](CCCCN)C(=O)N[C@@H](C)C(=O)N[C@@H](C)C(=O)N[C@@H](CC(C)C)C(=O)NCC(=O)N[C@@H](C)C(=O)N[C@@H](CC(C)C)C(N)=O)C(C)C", "note": "[GLWSTIKNVAAAAGKAALGAL]", "values": [{"measurement": "MIC", "setting": "[27]", "value": 2, "unit": "µM"}, {"measurement": "MIC", "setting": "[28]", "value": 17.8, "unit": "µM"}, {"measurement": "MIC", "setting": "[29]", "value": 32.3, "unit": "µM"}]}
{"compound": "CC[C@H](C)[C@H](NC(=O)[C@H](CO)NC(=O)[C@H](CO)NC(=O)CNC(=O)CNC(=O)CNC(=O)[C@H](C)NC(=O)[C@H](Cc1ccccc1)NC(=O)[C@H](Cc1ccccc1)NC(=O)[C@H](CCCCN)NC(=O)[C@H](CCCCN)NC(=O)[C@H](CC(C)C)NC(=O)[C@H](CCCN=C(N)N)NC(=O)[C@H](CCCN=C(N)N)NC(=O)[C@H](CCSC)NC(=O)[C@H](Cc1ccccc1)NC(=O)[C@H](CCCCN)NC(=O)[C@H](CCCN=C(N)N)NC(=O)[C@H](Cc1ccccc1)NC(=O)CNC(=O)[C@H](CC(N)=O)NC(=O)[C@H](CCCN=C(N)N)NC(=O)[C@@H](N)CCCCN)C(=O)N[C@@H](C)C(=O)N[C@@H](Cc1cnc[nH]1)C(=O)N[C@H](C(=O)N[C@@H](CCCCN)C(=O)N[C@@H](CC(C)C)C(=O)N[C@@H](Cc1cnc[nH]1)C(=O)O)[C@@H](C)CC", "note": "[KRNGFRKFMRRLKKFFAGGGSSIAHIKLH]", "values": [{"measurement": "MIC", "setting": "[30]", "value": 11.1, "unit": "µM"}, {"measurement": "MIC", "setting": "[31]", "value": 22.1, "unit": "µM"}, {"measurement": "MIC", "setting": "[32]", "value": 2.77, "unit": "µM"}, {"measurement": "MIC", "setting": "[33]", "value": 0.691, "unit": "µM"}, {"measurement": "MIC", "setting": "[34]", "value": 5.53, "unit": "µM"}, {"measurement": "MIC", "setting": "[35]", "value": 22.1, "unit": "µM"}, {"measurement": "MIC", "setting": "[36]", "value": 11.1, "unit": "µM"}, {"measurement": "MIC", "setting": "[37]", "value": 22.1, "unit": "µM"}, {"measurement": "MIC", "setting": "[38]", "value": 11.1, "unit": "µM"}, {"measurement": "MIC", "setting": "[28]", "value": 11.1, "unit": "µM"}, {"measurement": "MIC", "setting": "[39]", "value": 22.1, "unit": "µM"}, {"measurement": "MIC", "setting": "[40]", "value": 22.1, "unit": "µM"}, {"measurement": "MIC", "setting": "[41]", "value": 22.1, "unit": "µM"}, {"measurement": "MIC", "setting": "[42]", "value": 11.1, "unit": "µM"}, {"measurement": "MIC", "setting": "[43]", "value": 2.77, "unit": "µM"}, {"measurement": "MIC", "setting": "[44]", "value": 5.53, "unit": "µM"}, {"measurement": "MIC", "setting": "[45]", "value": 11.1, "unit": "µM"}, {"measurement": "MIC", "setting": "[46]", "value": 11.1, "unit": "µM"}]}
